In ChEMBL document CHEMBL4402543, “Bioisosteric Development of Multitarget Nonsteroidal Anti-Inflammatory Drug-Carbonic Anhydrases Inhibitor Hybrids for the Management of Rheumatoid Arthritis” (J Med Chem, 2020):
Active and inactive are the calls of the source.

Legend:
[1] = Half life in human plasma by LC-MS/MS analysis; type: ADME, cell-free
[2] = Half life in Sprague-Dawley rat plasma by LC-MS/MS analysis; type: ADME, cell-free
[3] = biological target: COX1 (Prostaglandin G/H synthase 1) (Homo sapiens, UniProt P23219); experiment: Inhibition of COX1 in human platelet rich plasma in assessed as inhibition of ADP-induced platelet aggregation at 10 uM incubated for 5 mins by turbidimetry based Born's method relative to control
[4] = biological target: T1, Prostaglandin G/H synthase 2 (Mus musculus) (UniProt Q05769); experiment: Inhibition of COX2 in mouse RAW264.7 cells assessed as reduction in LPS-induced inflammation by measuring reduction in PGE2 level at 100 uM treated 1 hr after LPS stimulation and measured after 18 hrs by ELISA relative to control; type: cell-based
T1 sequence (whole entry): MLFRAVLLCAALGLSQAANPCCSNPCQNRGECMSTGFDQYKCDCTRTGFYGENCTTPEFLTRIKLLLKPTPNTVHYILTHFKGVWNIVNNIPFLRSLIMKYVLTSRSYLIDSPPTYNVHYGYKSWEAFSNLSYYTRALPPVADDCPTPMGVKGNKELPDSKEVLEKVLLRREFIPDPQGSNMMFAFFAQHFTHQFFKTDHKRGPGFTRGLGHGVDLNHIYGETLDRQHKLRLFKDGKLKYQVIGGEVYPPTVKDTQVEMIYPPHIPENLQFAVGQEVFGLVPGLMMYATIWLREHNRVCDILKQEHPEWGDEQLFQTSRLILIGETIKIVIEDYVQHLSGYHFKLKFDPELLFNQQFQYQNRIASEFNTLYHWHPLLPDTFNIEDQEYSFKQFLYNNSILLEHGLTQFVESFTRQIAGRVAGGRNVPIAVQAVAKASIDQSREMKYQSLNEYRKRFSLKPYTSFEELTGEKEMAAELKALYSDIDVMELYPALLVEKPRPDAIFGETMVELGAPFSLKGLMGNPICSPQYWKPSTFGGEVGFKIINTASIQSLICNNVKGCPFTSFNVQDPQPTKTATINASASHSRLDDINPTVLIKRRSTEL

[5] = biological target: T1, Prostaglandin G/H synthase 2 (Mus musculus); experiment: Inhibition of COX2 in mouse RAW264.7 cells assessed as reduction in LPS-induced inflammation by measuring reduction in PGE2 level at 1 uM treated 1 hr after LPS stimulation and measured after 18 hrs by ELISA relative to control; type: cell-based
Rattus norvegicus [6] = experiment: Antihyperalgesic activity in Sprague-Dawley rat model of Complete freund's adjuvant-induced arthritis assessed as increase in pain threshold of ipsilateral paw at 10 mg/kg, po starting from day 14 after CFA injection and measured at 0 to 60 mins by paw pressure test; type: functional, organism-based
[7] = Stability in PBS; type: physicochemical; conditions: buffer
[8] = biological target: Carbonic anhydrase 4 (Homo sapiens) (UniProt P22748)
Description: Inhibition of human CA4 pre-incubated for 6 hrs by stopped- flow CO2 hydrase assay method based Cheng-Prusoff equation analysis

[9] = biological target: Carbonic anhydrase 7 (Homo sapiens) (UniProt P43166)
Description: Inhibition of human CA7 pre-incubated for 6 hrs by stopped- flow CO2 hydrase assay method based Cheng-Prusoff equation analysis

[10] = biological target: Carbonic anhydrase 1 (Homo sapiens) (UniProt P00915)
Description: Inhibition of human CA1 pre-incubated for 6 hrs by stopped- flow CO2 hydrase assay method based Cheng-Prusoff equation analysis

[11] = biological target: Carbonic anhydrase 2 (Homo sapiens) (UniProt P00918)
Description: Inhibition of human CA2 pre-incubated for 6 hrs by stopped- flow CO2 hydrase assay method based Cheng-Prusoff equation analysis

[12] = biological target: Carbonic anhydrase 9 (Homo sapiens) (UniProt Q16790)
Description: Inhibition of human CA9 pre-incubated for 6 hrs by stopped- flow CO2 hydrase assay method based Cheng-Prusoff equation analysis

[13] = biological target: Carbonic anhydrase 12 (Homo sapiens) (UniProt O43570)
Description: Inhibition of human CA12 pre-incubated for 6 hrs by stopped- flow CO2 hydrase assay method based Cheng-Prusoff equation analysis

Rattus norvegicus [14] = experiment: Antihyperalgesic activity in Sprague-Dawley rat model of Complete freund's adjuvant-induced arthritis assessed as increase in pain threshold of ipsilateral paw at 100 mg/kg, po starting from day 14 after CFA injection and measured at 15 mins by paw pressure test; type: functional, organism-based
Rattus norvegicus [15] = experiment: Antihyperalgesic activity in Sprague-Dawley rat model of Complete freund's adjuvant-induced arthritis assessed as increase in pain threshold of ipsilateral paw at 30 mg/kg, po starting from day 14 after CFA injection and measured at 15 to 30 mins by paw pressure test; type: functional, organism-based
Rattus norvegicus [16] = experiment: (§1) Antihyperalgesic activity in Sprague-Dawley rat model of Complete freund's adjuvant-induced arthritis assessed as reduction in difference between weight burdened on contralateral and ipsilateral paw at 30 mg/kg, po starting from day 14 after CFA injection and measured at 30 mins incapacitance test; type: functional, organism-based
Rattus norvegicus [17] = experiment: as §1, with “measured at 15 to 30 mins” for “measured at 30 mins”; type: functional, organism-based
Rattus norvegicus [18] = experiment: Antihyperalgesic activity in Sprague-Dawley rat model of Complete freund's adjuvant-induced arthritis assessed as reduction in difference between weight burdened on contralateral and ipsilateral paw at 30 mg/kg, po starting from day 14 after CFA injection and measured at 15 mins incapacitance test; type: functional, organism-based
Rattus norvegicus [19] = experiment: Antihyperalgesic activity in Sprague-Dawley rat model of Complete freund's adjuvant-induced arthritis assessed as reduction in difference between weight burdened on contralateral and ipsilateral paw at 30 mg/kg, po starting from day 14 after CFA injection and measured at 45 mins incapacitance test; type: functional, organism-based

Chain of COX1 (Prostaglandin G/H synthase 1) (P23219 whole entry): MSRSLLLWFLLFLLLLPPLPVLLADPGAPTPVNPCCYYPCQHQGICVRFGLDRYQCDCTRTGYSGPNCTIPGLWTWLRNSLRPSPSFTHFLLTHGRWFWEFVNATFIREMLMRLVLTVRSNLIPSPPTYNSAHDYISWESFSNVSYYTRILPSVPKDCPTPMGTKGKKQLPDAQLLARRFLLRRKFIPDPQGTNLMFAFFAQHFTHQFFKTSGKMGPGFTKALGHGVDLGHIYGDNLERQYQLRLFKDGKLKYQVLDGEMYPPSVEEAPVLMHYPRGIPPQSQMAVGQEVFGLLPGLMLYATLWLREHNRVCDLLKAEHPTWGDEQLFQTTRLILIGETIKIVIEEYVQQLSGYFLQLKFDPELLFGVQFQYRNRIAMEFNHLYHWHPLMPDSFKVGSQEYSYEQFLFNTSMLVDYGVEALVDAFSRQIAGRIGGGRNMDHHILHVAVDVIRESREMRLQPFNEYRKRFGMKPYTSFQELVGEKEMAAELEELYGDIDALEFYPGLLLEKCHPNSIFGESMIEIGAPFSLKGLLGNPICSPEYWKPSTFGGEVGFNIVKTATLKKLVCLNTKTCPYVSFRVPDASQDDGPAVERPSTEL
Chain of Carbonic anhydrase 7 (Homo sapiens) (P43166 whole entry): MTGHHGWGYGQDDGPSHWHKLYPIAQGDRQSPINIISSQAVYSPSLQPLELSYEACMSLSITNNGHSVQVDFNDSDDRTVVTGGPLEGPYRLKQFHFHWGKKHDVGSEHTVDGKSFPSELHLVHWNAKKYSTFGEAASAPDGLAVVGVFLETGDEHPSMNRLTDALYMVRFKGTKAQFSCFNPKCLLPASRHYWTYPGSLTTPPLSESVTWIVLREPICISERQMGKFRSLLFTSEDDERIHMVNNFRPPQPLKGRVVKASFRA
Chain of Carbonic anhydrase 1 (Homo sapiens) (P00915 2-261 limits assumed): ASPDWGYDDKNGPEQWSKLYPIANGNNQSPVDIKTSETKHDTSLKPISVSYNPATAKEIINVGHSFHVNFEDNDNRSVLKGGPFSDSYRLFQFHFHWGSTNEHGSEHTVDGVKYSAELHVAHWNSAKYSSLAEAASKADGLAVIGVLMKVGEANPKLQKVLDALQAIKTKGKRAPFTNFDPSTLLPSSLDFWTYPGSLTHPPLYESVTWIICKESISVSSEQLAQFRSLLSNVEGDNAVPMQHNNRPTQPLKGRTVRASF
Chain of Carbonic anhydrase 4 (Homo sapiens) (P22748 whole entry): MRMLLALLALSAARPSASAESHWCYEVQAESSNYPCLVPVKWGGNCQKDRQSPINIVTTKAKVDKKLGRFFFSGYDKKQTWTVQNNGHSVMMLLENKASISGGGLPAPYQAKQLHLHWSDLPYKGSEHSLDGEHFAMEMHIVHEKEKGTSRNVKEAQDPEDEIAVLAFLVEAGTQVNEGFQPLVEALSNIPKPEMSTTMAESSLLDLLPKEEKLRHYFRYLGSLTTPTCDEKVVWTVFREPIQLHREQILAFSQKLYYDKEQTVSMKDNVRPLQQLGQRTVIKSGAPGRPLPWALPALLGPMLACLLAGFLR
Chain of Carbonic anhydrase 12 (Homo sapiens) (O43570 whole entry): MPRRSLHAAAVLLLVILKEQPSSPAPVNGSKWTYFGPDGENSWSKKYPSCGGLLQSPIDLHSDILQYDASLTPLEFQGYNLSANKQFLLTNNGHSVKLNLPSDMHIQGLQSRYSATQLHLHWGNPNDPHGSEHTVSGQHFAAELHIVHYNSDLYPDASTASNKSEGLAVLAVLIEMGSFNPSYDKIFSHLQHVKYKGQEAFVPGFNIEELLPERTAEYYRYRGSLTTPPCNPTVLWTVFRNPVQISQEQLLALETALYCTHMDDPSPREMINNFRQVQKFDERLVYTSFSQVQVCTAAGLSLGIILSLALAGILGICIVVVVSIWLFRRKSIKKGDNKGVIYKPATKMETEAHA

Compound | half-life [1] | half-life [2] | inhibition at 5 min, 10 µM [3] | Stability [7] | other results
O=C(Cc1ccccc1Nc1c(Cl)cccc1Cl)NCCOc1ccc2oc(=O)ccc2c1 | > 4 h | > 4 h | 5 to 30% | – | inhibition [4]: 75%
CC1=C(CC(=O)NCCOc2ccc3ccc(=O)oc3c2)c2cc(F)ccc2/C1=C\c1ccc([S+](C)[O-])cc1 (stereo not given) | > 4 h | > 4 h | – | – | –
COc1ccc2c(c1)c(CC(=O)NCCOc1ccc3oc(=O)ccc3c1)c(C)n2C(=O)c1ccc(Cl)cc1 | > 4 h | > 4 h | – | – | –
COc1ccc2c(c1)c(CC(=O)NCCOc1ccc3ccc(=O)oc3c1)c(C)n2C(=O)c1ccc(Cl)cc1 | > 4 h | > 4 h | – | – | –
CC1=C(CC(=O)NCCOc2ccc3oc(=O)ccc3c2)c2cc(F)ccc2/C1=C\c1ccc([S+](C)[O-])cc1 (stereo not given) | > 4 h | > 4 h | – | – | –
O=C(Cc1ccccc1Nc1c(Cl)cccc1Cl)NCCOc1ccc2ccc(=O)oc2c1 | > 4 h | > 4 h | > 15% | – | –
CC1=C(CC(=O)OCCOc2ccc3ccc(=O)oc3c2)c2cc(F)ccc2/C1=C\c1ccc([S+](C)[O-])cc1 (stereo not given) | > 4 h | 0.277 h | – | Stable | –
O=C(Cc1ccccc1Nc1c(Cl)cccc1Cl)OCCOc1ccc2ccc(=O)oc2c1 | 0.3 h | < 0.0167 h | – | Stable | –
O=C(Cc1ccccc1Nc1c(Cl)cccc1Cl)OCCOc1ccc2oc(=O)ccc2c1 | 0.533 h | < 0.0167 h | – | Stable | –
COc1ccc2c(c1)c(CC(=O)OCCOc1ccc3ccc(=O)oc3c1)c(C)n2C(=O)c1ccc(Cl)cc1 | > 4 h | 0.0333 h | – | Stable | –
COc1ccc2c(c1)c(CC(=O)OCCOc1ccc3oc(=O)ccc3c1)c(C)n2C(=O)c1ccc(Cl)cc1 | > 4 h | 0.0467 h | – | Stable | –
COc1ccc2cc([C@H](C)C(=O)OCCOc3ccc4oc(=O)ccc4c3)ccc2c1 | > 4 h | 0.0183 h | – | Stable | –
CC1=C(CC(=O)OCCOc2ccc3oc(=O)ccc3c2)c2cc(F)ccc2/C1=C\c1ccc([S+](C)[O-])cc1 (stereo not given) | > 4 h | 0.0917 h | – | Stable | –
CC(C(=O)OCCOc1ccc2ccc(=O)oc2c1)c1ccc(-c2ccccc2)c(F)c1 (racemic) | > 4 h | 0.04 h | – | Stable | –
CC(C(=O)OCCOc1ccc2oc(=O)ccc2c1)c1ccc(-c2ccccc2)c(F)c1 (racemic) | > 4 h | 0.0217 h | – | Stable | –
O=C(O)Cc1ccccc1Nc1c(Cl)cccc1Cl [DICLOFENAC] | – | – | 15% | – | –
CC(C)Cc1ccc(C(C)C(=O)O)cc1 (stereo not given) [IBUPROFEN] | – | – | > 60% | – | Activity (Rattus norvegicus [14]): Active
CC(C(=O)O)c1cccc(C(=O)c2ccccc2)c1 (stereo not given) [KETOPROFEN] | – | – | 25% | – | Activity (Rattus norvegicus [15]): Active; Activity (Rattus norvegicus [16]): inactive; Activity (Rattus norvegicus [17]): Active; Activity (Rattus norvegicus [18]): Active; Activity (Rattus norvegicus [19]): inactive

Now from value to molecule, other results behind:

half-life [1] | half-life [2] | inhibition at 5 min, 10 µM [3] | Stability [7] | Compound | other results
> 4 h | > 4 h | – | – | CC(C(=O)NCCOc1ccc2ccc(=O)oc2c1)c1ccc(-c2ccccc2)c(F)c1 (stereo not given) | –
> 4 h | > 4 h | – | – | COc1ccc2cc([C@H](C)C(=O)NCCOc3ccc4ccc(=O)oc4c3)ccc2c1 | –
> 4 h | > 4 h | – | – | CC(C(=O)NCCOc1ccc2ccc(=O)oc2c1)c1cccc(C(=O)c2ccccc2)c1 (stereo not given) | –
> 4 h | > 4 h | – | – | CC(C(=O)NCCOc1ccc2oc(=O)ccc2c1)c1cccc(C(=O)c2ccccc2)c1 (stereo not given) | –
> 4 h | > 4 h | – | – | COc1ccc2cc([C@H](C)C(=O)NCCOc3ccc4oc(=O)ccc4c3)ccc2c1 | –
> 4 h | > 4 h | – | – | CC(C(=O)NCCOc1ccc2oc(=O)ccc2c1)c1ccc(-c2ccccc2)c(F)c1 (stereo not given) | –
> 4 h | > 4 h | 5 to 30% | – | CC(C)Cc1ccc(C(C)C(=O)NCCOc2ccc3oc(=O)ccc3c2)cc1 (stereo not given) | –
> 4 h | > 4 h | 5 to 30% | – | CC(C)Cc1ccc(C(C)C(=O)NCCOc2ccc3ccc(=O)oc3c2)cc1 (stereo not given) | inhibition [4]: Active; inhibition [5]: Active; Activity (Rattus norvegicus [6]): Active
> 4 h | < 0.0167 h | – | Stable | COc1ccc2cc([C@H](C)C(=O)OCCOc3ccc4ccc(=O)oc4c3)ccc2c1 | –
> 4 h | 0.0533 h | 5 to 30% | Stable | CC(C)Cc1ccc(C(C)C(=O)OCCOc2ccc3ccc(=O)oc3c2)cc1 (racemic) | Ki [8]: 6.5 nM; Ki [9]: > 10000 nM; Ki [10]: > 10000 nM; Ki [11]: > 10000 nM; Ki [12]: 3.9 nM; Ki [13]: 5.3 nM
> 4 h | 0.0583 h | 5 to 30% | Stable | CC(C)Cc1ccc(C(C)C(=O)OCCOc2ccc3oc(=O)ccc3c2)cc1 (racemic) | Ki [8]: 3.6 nM; Ki [9]: > 10000 nM; Ki [10]: > 10000 nM; Ki [11]: > 10000 nM; Ki [12]: 25.3 nM; Ki [13]: 459 nM
